28 compounds from US20260265248A1, “NOVEL PD-L1 INHIBITORS” (AFFIRMA BIOTECH S. L., priority 2023, published 2026) can be followed below.

T1 sequence (Q9NZQ7 19-238 limits assumed): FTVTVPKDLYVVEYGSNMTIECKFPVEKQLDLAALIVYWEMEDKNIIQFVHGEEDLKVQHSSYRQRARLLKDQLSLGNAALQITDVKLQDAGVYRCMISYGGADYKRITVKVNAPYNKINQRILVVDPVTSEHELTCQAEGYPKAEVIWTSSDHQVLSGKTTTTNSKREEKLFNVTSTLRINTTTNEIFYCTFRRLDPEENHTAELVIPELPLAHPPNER

The experiment concerns the target T1, PD-1/PD-L1 (Homo sapiens, UniProt Q9NZQ7).
T1 construct: purchased CisBio
Put plainly: PD1-PDL1 HTRF assay. Conditions: PD-1/PD-L1 homogenous time-resolved fluorescence (HTRF) binding assay; Tag1-PDL1 5 nM, Tag2-PD1 50 nM. The text has this: The CisBio HTRF assay kit, purchased from CisBio only, was employed to determine the IC50 values of compounds. The PD1-PDL1 HTRF assay measures the interactions between the two proteins, PD1 and PDL1. The interaction is detected by using anti-Tag1 labeled with Europium (HTRF donor) which binds to PDL1 and anti-Tag2 labeled with XL665 (HTRF acceptor) which binds to PD1. When the two antibodies are in proximity, the excitation of the donor fluorophore results in FRET emission from the acceptor fluorophore. The presence of inhibitors for such an interaction result in reduction of HTRF signal.
The assay was conducted in 96-well white assay plates. All the reagents, including Tag1-PDL1, Tag2-PD1, Anti-Tag1-PDL1, Anti-Tag2-PD1 were thawed and diluted with PPI Europium Detection buffer to achieve the desired concentration as per the manufacturer's protocol. A 1000 μM stock solution of test inhibitors was prepared in DMSO. The stock solution was diluted in DMSO to prepare 8 concentrations (1000-0.001 μM). These stock solutions were further diluted in PPI Europium detection buffer to prepare 8 working stock solutions (100-0.0001 μM). To the 96-well plate, 2 μL of the test inhibitor working stock solutions were added followed by 4 μL of Tag1-PDL1 (5 nM) and 4 μL of Tag2-PD1 (50 nM). The plate was incubated at room temperature for 15 min. Subsequently, 10 μL of pre-mixed Anti-Tag1-PDL1 and Anti-Tag2-PD1 solution was added. The plate was sealed and incubated at room temperature for 1 h. The HTRF signal was read on Perkin Elmer Envision plate reader using excitation wavelength of 320 nm, emission wavelengths of 620 nm and 665 nm. Results were obtained by calculating the ratio of signal from acceptor at 665 nm to that of signal from donor at 620 nm multiplied by […]. The IC50 values were determined by the Hill equation using GraphPad Prism software.
The compound `Cc1c(-c2ccccc2)cccc1-c1ccn2c(-c3ccc(CN4CCCCC4C(=O)O)cc3)cnc2c1` (racemic) [Example 1, 1-(4-(7-(2-methyl-[1,1′-biphenyl]-3-yl)imidazo[1,2-a]pyridin-3-yl)benzyl) piperidine-2-carboxylic acid] registered a half-inhibitory concentration (IC50) of 100 to 1000 nM.
Turning to `Cc1c(-c2ccc3c(c2)OCCO3)cccc1-c1ccn2c(-c3ccc(CN4CCOCC4C(=O)O)cc3)cnc2c1` (racemic) [Example 33, 4-(4-(7-(3-(2,3-dihydrobenzo[b][1,4]dioxin-6-yl)-2-methylphenyl)imidazo[1,2-a]pyridin-3-yl)benzyl)morpholine-3-carboxylic acid], the IC50 lay within 100 to 1000 nM.
For the compound `Cc1c(-c2ccc3c(c2)OCCO3)cccc1-c1ccn2c(-c3ccc(CN4CCOCC4C(=O)O)cc3)cnc2c1` (single isomer, unassigned) [Example 34, 4-(4-(7-(3-(2,3-dihydrobenzo[b][1,4]dioxin-6-yl)-2-methylphenyl)imidazo[1,2-a]pyridin-3-yl)benzyl)morpholine-3-carboxylic acid], the concentration for half-maximal inhibition (IC50) was 100 to 1000 nM.
The compound `Cc1c(-c2ccc3c(c2)OCCO3)cccc1-c1ccn2c(-c3ccc(CN4CCOCC4C(=O)O)cc3)cnc2c1` (single isomer, unassigned) [Example 35, 4-(4-(7-(3-(2,3-dihydrobenzo[b][1,4]dioxin-6-yl)-2-methylphenyl)imidazo[1,2-a]pyridin-3-yl)benzyl)morpholine-3-carboxylic acid] registered an IC50 of 100 to 1000 nM.
The result for `Cc1c(-c2ccccc2)cccc1-c1ccn2c(-c3ccc(CN4CCC[C@H]4C(=O)O)cc3)cnc2c1` [Example 2, (4-(7-(2-methyl-[1,1′-biphenyl]-3-yl)imidazo[1,2-a]pyridin-3-yl)benzyl)proline] reads 10 to 100 nM; that for `Cc1c(-c2ccccc2)cccc1-c1ccn2c(-c3ccc(CNC4(C(=O)O)COC4)cc3)cnc2c1` [Example 3, 3-((4-(7-(2-methyl-[1,1′-biphenyl]-3-yl)imidazo[1,2-a]pyridin-3-yl)benzyl)amino)oxetane-3-carboxylic acid], 100 to 1000 nM; that for `Cc1c(-c2ccccc2)cccc1-c1ccn2c(-c3ccc(CN4C[C@H](O)C[C@H]4C(=O)O)cc3)cnc2c1` [Example 4, (2S,4R)-4-hydroxy-1-(4-(7-(2-methyl-[1,1′-biphenyl]-3-yl)imidazo[1,2-a]pyridin-3-yl)benzyl)pyrrolidine-2-carboxylic acid], 100 to 1000 nM.
To `Cc1c(-c2ccccc2)cccc1-c1ccn2c(-c3ccc(CNC4(C(=O)O)CCC4)cc3)cnc2c1` [Example 5, 1-((4-(7-(2-methyl-[1,1′-biphenyl]-3-yl)imidazo[1,2-a]pyridin-3-yl)benzyl)amino)cyclobutane-1-carboxylic acid] belongs 100 to 1000 nM; to `Cc1c(-c2ccccc2)cccc1-c1ccn2c(-c3ccc(CN4CCOCC4C(=O)O)cc3)cnc2c1` (stereo not shown) [Example 6, 4-(4-(7-(2-methyl-[1,1′-biphenyl]-3-yl)imidazo[1,2-a]pyridin-3-yl)benzyl)morpholine-3-carboxylic acid], 100 to 1000 nM; to `Cc1c(-c2ccccc2)cccc1-c1ccn2c(-c3ccc(CN4CC(C(=O)O)C4)cc3)cnc2c1` [Example 7, 1-(4-(7-(2-methyl-[1,1′-biphenyl]-3-yl)imidazo[1,2-a]pyridin-3-yl)benzyl)azetidine-3-carboxylic acid], 100 to 1000 nM.
To `Cc1c(-c2ccccc2)cccc1-c1ccn2c(-c3ccc(CNCCCO)cc3)cnc2c1` [Example 8, 3-((4-(7-(2-methyl-[1,1′-biphenyl]-3-yl)imidazo[1,2-a]pyridin-3-yl)benzyl)amino)propan-1-ol] belongs 100 to 1000 nM; to `Cc1c(-c2ccccc2)cccc1-c1ccn2c(-c3ccc(CN[C@H](C(=O)O)C(C)C)cc3)cnc2c1` [Example 9, (4-(7-(2-methyl-[1,1′-biphenyl]-3-yl)imidazo[1,2-a]pyridin-3-yl)benzyl)valine], 100 to 1000 nM.
On to `Cc1c(-c2ccccc2)cccc1-c1ccn2c(-c3ccc(CN4CCC[C@H]4C(=O)O)cc3)cnc2c1` [Example 10, (4-(7-(2-methyl-[1,1′-biphenyl]-3-yl)imidazo[1,2-a]pyridin-3-yl)benzyl)-L-proline], for which the IC50 is 100 to 1000 nM.
To `Cc1c(-c2ccccc2)cccc1-c1ccn2c(-c3ccc(CN4CCC[C@@H]4C(=O)O)cc3)cnc2c1` [Example 11, (4-(7-(2-methyl-[1,1′-biphenyl]-3-yl)imidazo[1,2-a]pyridin-3-yl)benzyl)-D-proline] belongs 100 to 1000 nM; to `Cc1c(-c2ccccc2)cccc1-c1ccn2c(-c3ccc(CNCC(=O)O)cc3)cnc2c1` [Example 12, (4-(7-(2-methyl-[1,1′-biphenyl]-3-yl)imidazo[1,2-a]pyridin-3-yl)benzyl)glycine], 100 to 1000 nM; to `Cc1c(-c2ccccc2)cccc1-c1ccn2c(-c3ccc(CN4CC[C@H]4C(=O)O)cc3)cnc2c1` [Example 13, (S)-1-(4-(7-(2-methyl-[1,1′-biphenyl]-3-yl)imidazo[1,2-a]pyridin-3-yl)benzyl)azetidine-2-carboxylic acid], 100 to 1000 nM.
To `Cc1c(-c2ccccc2)cccc1-c1ccn2c(-c3ccc(CNCC(O)CC(=O)O)cc3)cnc2c1` (stereo not shown) [Example 14, 3-hydroxy-4-((4-(7-(2-methyl-[1,1′-biphenyl]-3-yl)imidazo[1,2-a]pyridin-3-yl)benzyl)amino) butanoic acid] belongs 100 to 1000 nM; to `Cc1c(-c2ccccc2)cccc1-c1ccn2c(-c3ccc(CNCCCO)cc3)nnc2c1` [Example 15, 3-((4-(7-(2-methyl-[1,1′-biphenyl]-3-yl)-[1,2,4]triazolo[4,3-a]pyridin-3-yl)benzyl)amino)propan-1-ol], 100 to 1000 nM.
On to `Cc1c(-c2ccccc2)cccc1-c1ccn2c(-c3ccc(CNC(C)(C)CO)cc3)cnc2c1` [Example 17, 2-methyl-2-((4-(7-(2-methyl-[1,1′-biphenyl]-3-yl)imidazo[1,2-a]pyridin-3-yl)benzyl)amino)propan-1-ol], for which the IC50 was 100 to 1000 nM.
Take `Cc1c(-c2ccccc2)cccc1-c1ccn2c(-c3ccc(CNCCC(=O)O)cc3)cnc2c1` [Example 18, 3-((4-(7-(2-methyl-[1,1′-biphenyl]-3-yl)imidazo[1,2-a]pyridin-3-yl)benzyl)amino)propanoic acid]: the half-inhibitory concentration (IC50) lay within 100 to 1000 nM.
To `Cc1c(-c2ccccc2)cccc1-c1ccn2c(-c3ccc(CNCCS(=O)(=O)O)cc3)cnc2c1` [Example 19, 2-((4-(7-(2-methyl-[1,1′-biphenyl]-3-yl)imidazo[1,2-a]pyridin-3-yl)benzyl)amino)ethane-1-sulfonic acid] belongs 100 to 1000 nM.
The result for `COc1cc(-c2cnc3cc(-c4cccc(-c5ccccc5)c4C)ccn23)cc(OC)c1CN1CCCC1C(=O)O` (stereo not shown) [Example 20, 1-(2,6-dimethoxy-4-(7-(2-methyl-[1,1′-biphenyl]-3-yl)imidazo[1,2-ai]pyridin-3-yl)benzyl)piperidine-2-carboxylic acid] reads 100 to 1000 nM.
To `COc1cc(-c2cnc3cc(-c4cccc(-c5ccccc5)c4C)ccn23)cc(OC)c1CN1CCC[C@H]1C(=O)O` [Example 21, (2,6-dimethoxy-4-(7-(2-methyl-[1,1′-biphenyl]-3-yl)imidazo[1,2-a]pyridin-3-yl)benzyl)proline] belongs 100 to 1000 nM.
`Cc1c(-c2ccccc2)cccc1-c1ccn2c(-c3ccc(CN4CCC[C@@H]4CO)cc3)cnc2c1` [Example 23, (R)-(1-(4-(7-(2-methyl-[1,1′-biphenyl]-3-yl)imidazo[1,2-a]pyridin-3-yl)benzyl)pyrrolidin-2-yl)methanol] had an IC50 of 100 to 1000 nM.
To `Cc1c(-c2ccccc2)cccc1-c1ccn2c(-c3ccc(CN4CCC[C@H]4CO)cc3)cnc2c1` [Example 24, (S)-(1-(4-(7-(2-methyl-[1,1′-biphenyl]-3-yl)imidazo[1,2-a]pyridin-3-yl)benzyl)pyrrolidin-2-yl)methanol] belongs 100 to 1000 nM; to `Cc1c(-c2ccc3c(c2)OCCO3)cccc1-c1ccn2c(-c3ccc(CN4CC(C(=O)O)C4)cc3)cnc2c1` [Example 25, 1-(4-(7-(3-(2,3-dihydrobenzo[b][1,4]dioxin-6-yl)-2-methylphenyl)imidazo[1,2-a]pyridin-3-yl)benzyl)azetidine-3-carboxylic acid], 100 to 1000 nM; to `Cc1c(-c2ccc3c(c2)OCCO3)cccc1-c1ccn2c(-c3ccc(CN4CC[C@H]4C(=O)O)cc3)cnc2c1` [Example 26, (S)-1-(4-(7-(3-(2,3-dihydrobenzo[b][1,4]dioxin-6-yl)-2-methylphenyl)imidazo[1,2-a]pyridin-3-yl)benzyl)azetidine-2-carboxylic acid], 100 to 1000 nM.
To `Cc1c(-c2ccc3c(c2)OCCO3)cccc1-c1ccn2c(-c3ccc(CN4CCC[C@@H]4C(=O)O)cc3)cnc2c1` [Example 27, (4-(7-(3-(2,3-dihydrobenzo[b][1,4]dioxin-6-yl)-2-methylphenyl)imidazo[1,2-a]pyridin-3-yl)benzyl)-D-proline] belongs 100 to 1000 nM.
